Here are results for 7 compounds from ChEMBL document CHEMBL1921688, “Alkaloids from Chelidonium majus and their inhibitory effects on LPS-induced NO production in RAW264.7 cells” (Bioorg Med Chem Lett, 2011).

Series [1] has as its system RAW264.7. In words: Antiinflammatory activity in mouse RAW264.7 cells assessed as inhibition of LPS-induced COX2 production at 3 uM after 18 hrs by Western blot analysis. Type of series: functional, cell-based.
Series [2] deals with RAW264.7. In words: Antiinflammatory activity in mouse RAW264.7 cells assessed as inhibition of LPS-induced COX2 production after 18 hrs by Western blot analysis. The series is classed as functional, cell-based.
The test system of series [3] is RAW264.7. The series can be described thus: Antiinflammatory activity in mouse RAW264.7 cells assessed as inhibition of LPS-induced iNOS production after 18 hrs by Western blot analysis. The series is classed as functional, cell-based.
The test system of series [4] is RAW264.7. The series can be described thus: Antiinflammatory activity in mouse RAW264.7 cells assessed as inhibition of LPS-induced COX2 promoter activity. The series is classed as functional, cell-based.
In series [5] the test system is RAW264.7. The series can be described thus: Antiinflammatory activity in mouse RAW264.7 cells assessed as inhibition of LPS-induced iNOS promoter activity. Type of series: functional, cell-based.
Series [6] deals with RAW264.7. In words: Antiinflammatory activity in mouse RAW264.7 cells assessed as inhibition of LPS-induced iNOS production at 1 uM after 18 hrs by Western blot analysis. Type of series: functional, cell-based.
Series [7] relates to RAW264.7. In words: Cytotoxicity against mouse RAW264.7 cells assessed as cell viability at 50 uM after 24 hrs by MTT assay. Particulars: raw264.7, 24 h. The series is classed as cell-based.
For series [8], the system named is RAW264.7. The series can be described thus: Antiinflammatory activity in mouse RAW264.7 cells assessed as inhibition of LPS-induced nitric oxide production after 24 hrs by griess assay. Type of series: functional, cell-based. The following applies: RAW264.7, 24 h.
The subject of series [9] is RAW264.7. In words: Antiinflammatory activity in mouse RAW264.7 cells assessed as inhibition of LPS-induced iNOS production at 3 uM after 18 hrs by Western blot analysis. Type of series: functional, cell-based.

Calls of active or inactive are those of the source. The calls are words filed in the database; no cut-off is given here.

In the case of `CN1c2c(ccc3cc4c(cc23)OCO4)-c2ccc3c(c2C1O)OCO3` (stereo not given), the inhibition result in the series with RAW264.7 [1], with RAW264.7 [4], in the series on RAW264.7 [5] and in the series on RAW264.7 [6] was “Active” each time. Moreover, the inhibition entry with RAW264.7 [2] and in the series with RAW264.7 [3] was “Dose-dependent effect” each time. For the same compound, the Activity result in the series with RAW264.7 [7] was “Non-toxic”. For the same compound, the IC50 in the series on RAW264.7 [8] worked out at 4.5 µM.

For `COC(=O)CC1c2c(ccc3c2OCO3)-c2ccc3cc4c(cc3c2N1C)OCO4` (stereo not given), the Activity result in the series with RAW264.7 [7] was “Non-toxic”. The concentration for half-maximal inhibition (IC50) in the series with RAW264.7 [8] is over 50 µM.

Take `COc1ccc2cc3[n+](cc2c1OC)CCc1cc2c(cc1-3)OCO2` [BERBERINE]: in the series with RAW264.7 [7], the Activity result is listed as “Non-toxic”. Besides, in the series with RAW264.7 [8], the IC50 is over 30 µM.

Regarding `CN1Cc2c(ccc3c2OCO3)[C@@H]2[C@H]1c1cc3c(cc1C[C@@H]2O)OCO3` [CHELIDONINE], the inhibition entry in the series on RAW264.7 [1], in the series with RAW264.7 [4], in the series with RAW264.7 [5] and in the series on RAW264.7 [9] was “Active” throughout. Moreover, the inhibition result with RAW264.7 [2] and in the series on RAW264.7 [3] was “Dose-dependent effect” each time. For the same compound, the Activity entry in the series on RAW264.7 [7] is listed as “Non-toxic”. Moreover, the IC50 in the series on RAW264.7 [8] amounted to 7.3 µM.

On to `O[C@@H]1Cc2cc3c(cc2[C@@H]2NCc4c(ccc5c4OCO5)[C@H]12)OCO3` [NORCHELIDONINE], for which, in the series on RAW264.7 [7], the Activity result is on record as “Non-toxic”. Besides, the IC50 in the series with RAW264.7 [8] is 16.5 µM.

For `CN1CCc2cc3c(cc2C(=O)Cc2ccc4c(c2C1)OCO4)OCO3` [PROTOPINE], the Activity result in the series on RAW264.7 [7] was “Non-toxic”.

Take `c1cc2c(c3c1C[C@H]1c4cc5c(cc4CCN1C3)OCO5)OCO2` [STYLOPINE]: the Activity result in the series with RAW264.7 [7] is “Non-toxic”. In addition, in the series with RAW264.7 [8], the IC50 is over 50 µM.
